Assay results as given in patent US8895744B2, “Alfa-carboline inhibitors of NPM-ALK, RET, and Bcr-Abl” (Universita' Degli Studi di Milano-Bicocca, priority 2008, dated 2014).

Tests used:
Recombinant ALK kinase = target: T1, Recombinant ALK kinase (Homo sapiens, UniProt Q9UM73); test: ALK kinase inhibitory activity, ELISA-based in vitro kinase assay; assay type: biochemical; settings: purified rALK, 0.3 mM ATP, read-out: ALK IC50
T1 construct: made in house; host or cells: Sf9 insect cells (baculovirus)
Method: 36. Alk Kinase Inhibitory Activity
(§1) Method: ELISA-Based In Vitro Kinase Assay
(§2) Recombinant ALK kinase was expressed in Sf9 insect cells using the pBlueBacHis2C baculovirus vector system and purified using an anion exchange Fast Flow Q-sepharose column (Amersham-Pharmacia Biotech) followed by HiTrap™-nickel affinity column (Amersham-Pharmacia Biotech). Purified ALK protein was used to screen inhibitors in the ELISA-based kinase assay. A Nunc Immuno 96 well plate was incubated overnight at 37° C. with coating solution (125 μL/well) containing ALK peptide substrate ([…]) (SEQ ID NO: 1) at various concentrations in PBS. Wells were then washed with 200 μL of wash buffer (PBS-Tween 0.05%) and left to dry for at least 2 h at 37° C. The kinase reaction was performed in the presence of 50 mM Tris pH 7.5, 5 mM MnCl2, 5 mM MgCl2, 0.3 mM ATP and purified rALK in a total volume of 100 μL/well at 30° C. for 15 min. For inhibitor testing the reaction mix was preincubated with the inhibitor or solvent control for 10 min at room temperature before transferring to the ELISA plate. After the reaction wells were washed 5 times with 200 μL of wash buffer. Phosphorylated peptide was detected using 100 μL/well of a mouse monoclonal anti-phosphotyrosine antibody (clone 4G10 Upstate Biotech Ltd) diluted 1:2000 in PBS+4% BSA. After 30 min incubation at room temperature the antibody was removed and wells were washed as described above. 100 μL of a secondary antibody (anti-mouse IgG, Horseradish Peroxidase linked whole antibody, Amersham Pharmacia Biotech) diluted 1:1000 in PBS+4% BSA was added to each well and the plate was incubated again for 30 min at room temperature before washing as above. The plate was developed using 100 μL/well TMB Substrate Solution (Endogen) and the reaction was stopped by adding an equiv.ual volume of H2SO4 0.36 M. Finally, the absorbance was read at 450 nm using an Ultrospec® 300 spectrophotometer (Amersham-Pharmacia Biotech). The concentration of the test solution showing 50% inhibition as compared with the control was expressed as IC50 (μM).

[1] = test system: parent untransformed BaF3 cells; test: Tritiated thymidine uptake cell proliferation assay, parental BaF3 (control); assay type: cell-based; settings: Mus musculus, 3[H]-thymidine uptake, 72 h, medium with IL-3, read-out: BaF parental IC50
Method: (§3) Method: Tritiated Thymidine Uptake Cell Proliferation Assay
(§4) The following procedure was used with parent untransformed BaF3 cells, BaF3 cells transformed with the oncogenic fusion protein NPM/ALK, NPM/ALK positive SUDHL-1 cells, ALK-negative U937 cells, NPM/ALK positive KARPAS-299 cells. The parent untransformed BaF3 cells and Alk-negative U937 cells are used as controls. Cells were seeded in U-bottomed 96-well plates at 10 000 cells/well in a volume of 100 μL in supplemented medium. In the case of the parent untransformed BaF3 cells, the medium was supplemented with IL-3. Serial dilutions of inhibitors were added to the appropriate wells and volumes adjusted to 200 μL. Controls were treated with the equivalent volume of vehicle, DMSO, alone. Plates were incubated at 37° C. for 72 h. ^3[H]-thymidine (1 μCi/well) was added for the last 16 h of incubation. Cells were harvested on to paper filters and ^3[H]-thymidine incorporation was measured using a β scintillation counter (1430 MicroBeta, Wallac, Turku, Finland). The 50% inhibitory concentration (IC50) was defined as the concentration of inhibitor, expressed in micromolar, that gave a 50% decrease in ^3[H]-thymidine uptake compared with controls.
as §4, with “protein bcr-abl, Abl-negative” for “protein NPM/ALK, NPM/ALK positive SUDHL-1 cells, ALK-negative”, “cells, or Bcr-abl” for “cells, NPM/ALK”, “positive LAMA-84” for “positive KARPAS-299”, “and Abl-negative” for “and Alk-negative”, “in ^3H-thymidine” for “in ^3[H]-thymidine”
as §4, with “RET-PTC2, or RET-negative 11937” for “NPM/ALK, NPM/ALK positive SUDHL-1 cells, ALK-negative U937 cells, NPM/ALK positive KARPAS-299”, “RET-negative” for “Alk-negative”

[2] = target: T2, BaF3 cells transformed with the oncogenic fusion protein NPM/ALK (Homo sapiens, UniProt Q9UM73); test: Tritiated thymidine uptake cell proliferation assay, BaF3 NPM/ALK; assay type: cell-based; settings: 3[H]-thymidine uptake, 72 h; read-out: BaF NPM/ALK IC50
T2 construct: fused on or other part: P06748 (Nucleophosmin)
Method: Inhibition of the proliferation of NPM/ALK positive cells
as §3, §4

[3] = target: T3, Recombinant Abl T315I protein (Homo sapiens, UniProt P00519, T315I); test: Abl T315I mutant kinase inhibitory activity, ELISA-based in vitro kinase assay; assay type: biochemical; settings: purified Abl T315I, 0.3 mM ATP
T3 construct: made in house; host or cells: Sf9 cells (baculovirus)
Method: as §2
37. Abl T315I Mutant Kinase Inhibitory Activity
as §1
Recombinant Abl T315I protein was expressed in Sf9 cells using the pBlueBacHis2C baculovirus expression vector. Abl T315I was purified using an anion exchange Fast Flow Q-sepharose column (Amersham-Pharmacia Biotech) followed by HiTrap™-nickel affinity column (Amersham-Pharmacia Biotech). Purified Abl T315I was used in the ELISA-based kinase assay to screen inhibitors as described above. The kinase reaction was performed in the presence of 50 mM Tris pH 7.5, 1 mM MnCl2, 5 mM MgCl2, 0.3 mM ATP, peptide substrate ([…]) (SEQ ID NO: 1) and purified Abl T315I. The concentration of the test solution showing 50% inhibition as compared with the control was expressed as IC50 (μM).

T2 sequence (Q9UM73 whole entry, change not shown, the tested form may be a part): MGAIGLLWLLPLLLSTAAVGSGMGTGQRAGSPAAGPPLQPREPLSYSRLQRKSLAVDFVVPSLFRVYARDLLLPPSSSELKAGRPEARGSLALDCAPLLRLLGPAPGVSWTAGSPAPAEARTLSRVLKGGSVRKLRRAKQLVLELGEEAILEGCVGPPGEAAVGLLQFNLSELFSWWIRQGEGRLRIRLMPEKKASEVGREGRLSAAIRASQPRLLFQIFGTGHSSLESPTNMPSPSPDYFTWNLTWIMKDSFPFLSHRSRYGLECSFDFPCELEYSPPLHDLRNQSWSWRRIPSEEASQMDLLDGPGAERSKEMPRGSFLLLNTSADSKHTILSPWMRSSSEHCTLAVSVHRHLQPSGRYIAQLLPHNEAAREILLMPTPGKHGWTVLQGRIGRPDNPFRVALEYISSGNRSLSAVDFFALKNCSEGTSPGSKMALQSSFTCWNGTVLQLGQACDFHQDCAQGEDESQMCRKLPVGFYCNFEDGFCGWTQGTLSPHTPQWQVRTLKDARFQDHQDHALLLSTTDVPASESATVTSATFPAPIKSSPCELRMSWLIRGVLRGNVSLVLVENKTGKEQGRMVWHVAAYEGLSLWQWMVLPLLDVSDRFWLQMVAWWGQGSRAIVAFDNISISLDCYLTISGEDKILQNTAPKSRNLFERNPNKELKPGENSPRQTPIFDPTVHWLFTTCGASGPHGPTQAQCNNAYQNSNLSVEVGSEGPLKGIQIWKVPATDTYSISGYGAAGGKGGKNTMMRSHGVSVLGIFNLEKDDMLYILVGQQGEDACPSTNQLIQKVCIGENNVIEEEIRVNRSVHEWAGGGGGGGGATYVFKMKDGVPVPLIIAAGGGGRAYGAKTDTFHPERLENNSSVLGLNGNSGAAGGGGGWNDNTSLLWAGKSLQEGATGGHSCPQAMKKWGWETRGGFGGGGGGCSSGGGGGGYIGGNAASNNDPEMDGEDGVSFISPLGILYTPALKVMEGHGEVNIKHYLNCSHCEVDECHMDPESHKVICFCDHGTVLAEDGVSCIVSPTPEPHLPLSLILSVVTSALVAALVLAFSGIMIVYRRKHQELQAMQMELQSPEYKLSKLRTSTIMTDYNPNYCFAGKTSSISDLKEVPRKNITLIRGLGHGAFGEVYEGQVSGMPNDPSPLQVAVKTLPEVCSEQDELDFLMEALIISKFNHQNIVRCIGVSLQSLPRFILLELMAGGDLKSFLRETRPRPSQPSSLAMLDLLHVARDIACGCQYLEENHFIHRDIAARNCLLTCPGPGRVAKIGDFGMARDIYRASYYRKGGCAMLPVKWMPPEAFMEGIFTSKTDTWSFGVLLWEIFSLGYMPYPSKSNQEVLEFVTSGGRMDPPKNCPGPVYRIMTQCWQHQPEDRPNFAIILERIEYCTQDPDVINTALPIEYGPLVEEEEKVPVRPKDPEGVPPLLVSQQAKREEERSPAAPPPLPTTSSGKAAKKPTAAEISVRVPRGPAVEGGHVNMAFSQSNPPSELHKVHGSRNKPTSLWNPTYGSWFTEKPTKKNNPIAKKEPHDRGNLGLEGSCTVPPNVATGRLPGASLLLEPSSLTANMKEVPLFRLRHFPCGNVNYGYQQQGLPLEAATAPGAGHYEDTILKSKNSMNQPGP
T1 sequence (Q9UM73 19-1620): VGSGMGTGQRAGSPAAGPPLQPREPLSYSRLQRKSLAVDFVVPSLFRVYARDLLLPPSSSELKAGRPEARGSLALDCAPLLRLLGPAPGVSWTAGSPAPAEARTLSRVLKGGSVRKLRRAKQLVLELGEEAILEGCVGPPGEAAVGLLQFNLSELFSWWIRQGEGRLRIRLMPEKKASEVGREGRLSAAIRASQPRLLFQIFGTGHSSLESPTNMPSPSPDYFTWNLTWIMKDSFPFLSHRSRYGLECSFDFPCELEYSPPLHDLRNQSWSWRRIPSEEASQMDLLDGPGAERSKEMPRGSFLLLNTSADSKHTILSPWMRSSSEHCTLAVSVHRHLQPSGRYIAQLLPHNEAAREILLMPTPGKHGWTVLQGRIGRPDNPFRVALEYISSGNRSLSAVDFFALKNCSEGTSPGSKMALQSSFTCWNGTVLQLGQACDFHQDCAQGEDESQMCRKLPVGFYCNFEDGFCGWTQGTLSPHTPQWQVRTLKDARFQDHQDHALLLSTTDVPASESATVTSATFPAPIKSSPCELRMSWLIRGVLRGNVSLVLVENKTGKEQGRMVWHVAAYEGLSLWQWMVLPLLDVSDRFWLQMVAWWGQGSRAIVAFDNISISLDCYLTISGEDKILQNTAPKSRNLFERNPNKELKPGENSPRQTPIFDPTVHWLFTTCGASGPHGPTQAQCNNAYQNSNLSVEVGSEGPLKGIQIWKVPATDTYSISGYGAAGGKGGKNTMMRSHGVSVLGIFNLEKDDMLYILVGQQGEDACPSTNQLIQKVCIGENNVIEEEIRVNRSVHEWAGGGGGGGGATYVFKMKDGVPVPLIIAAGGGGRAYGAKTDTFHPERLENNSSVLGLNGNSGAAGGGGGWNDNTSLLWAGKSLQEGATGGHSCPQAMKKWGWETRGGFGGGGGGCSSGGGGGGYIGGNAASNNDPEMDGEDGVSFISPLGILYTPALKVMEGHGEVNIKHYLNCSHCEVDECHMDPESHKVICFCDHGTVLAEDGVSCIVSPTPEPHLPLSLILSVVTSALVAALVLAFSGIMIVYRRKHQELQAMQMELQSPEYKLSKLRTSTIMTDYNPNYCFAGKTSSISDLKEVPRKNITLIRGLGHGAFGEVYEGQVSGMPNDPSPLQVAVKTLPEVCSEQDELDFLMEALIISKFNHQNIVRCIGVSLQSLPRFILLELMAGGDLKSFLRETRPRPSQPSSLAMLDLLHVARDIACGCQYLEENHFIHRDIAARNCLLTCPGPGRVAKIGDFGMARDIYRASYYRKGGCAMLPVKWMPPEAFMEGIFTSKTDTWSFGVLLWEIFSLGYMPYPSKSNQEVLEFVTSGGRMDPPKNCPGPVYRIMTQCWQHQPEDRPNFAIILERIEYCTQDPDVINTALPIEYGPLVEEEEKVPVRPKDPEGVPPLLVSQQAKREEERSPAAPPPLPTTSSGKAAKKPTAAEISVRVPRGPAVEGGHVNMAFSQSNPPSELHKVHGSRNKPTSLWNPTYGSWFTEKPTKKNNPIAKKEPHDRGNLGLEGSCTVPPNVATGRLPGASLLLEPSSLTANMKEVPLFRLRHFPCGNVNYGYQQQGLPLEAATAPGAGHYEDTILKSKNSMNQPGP

Row | Structure (SMILES) | IC50 (Recombinant ALK kinase) [µM] | GI50 [2] [µM] | IC50 [3] [µM] | IC50 [1] [µM]
1 | COc1cccc(Nc2cnc3[nH]c4ccccc4c3c2)c1 [R344, N-(3-methoxyphenyl)-9H-pyrido[2,3-b]indol-3-amine] | > 100 |  |  | 
2 | O=C(Nc1ccc2[nH]c3ncccc3c2c1)c1ccccc1 [R249] | > 100 |  |  | 
3 | COc1ccc2sc(SCC(=O)c3ccc4[nH]c5ncc(Cl)cc5c4c3)nc2c1 [R301, 1-(3-chloro-9H-pyrido[2,3-b]indol-6-yl)-2-(5-methoxybenzothiazol-2-ylsulfanyl)éthanone] | 38 ± 16 |  |  | 
4 | C(=C\c1ccc2[nH]c3nc(Nc4ccccc4)ccc3c2c1)/c1ccccc1 [R320] |  |  |  | 23
5 | CN1CCN(C(=O)CCC(=O)c2ccc3[nH]c4nc(Cl)ccc4c3c2)CC1 [R302, 1-(2-Chloro-9H-pyrido[2,3-b]indol-6-yl)-4-(4-methylpiperazin-1-yl)butane-1,4-dione] | 24 ± 2 | 4.8 |  | 5.8
6 | COc1cccc(Nc2ccnc3[nH]c4ccccc4c23)c1 [R324, N-(3-methoxyphenyl)-9H-pyrido[2,3-b]indol-4-amine] | > 100 | 3.8 |  | 1.7
7 | c1c[nH]c(-c2ccc3c(n2)[nH]c2ccccc23)c1 [R355, 2-(1H-pyrrol-2-yl)-9H-pyrido[2,3-b]indole] | > 100 |  |  | 
8 | CC(=O)c1ccc2[nH]c3nc(C)ccc3c2c1 [R242, 6-acetyl-2-methyl-9H-pyrido[2,3-b]indole] | 87.1 ± 1.3 |  |  | 
9 | c1coc(-c2cnc3[nH]c4ccccc4c3c2)c1 [R325, 3-(furan-2-yl)-9H-pyrido[2,3-b]indole] |  | > 100 |  | > 100
10 | Nc1cccc(-c2ccc3[nH]c4ncccc4c3c2)n1 [R247] | > 100 |  |  | 
11 | Fc1cccc(/C=C/c2cnc3[nH]c4ccc(/C=C/c5ccccc5)cc4c3c2)c1 [R359, 3-((E)-2′-(3-fluorophenyl)ethenyl)-6-(E)-(2-(phenyl)ethenyl)-9H-pyrido[2,3-b]indole] | > 100 |  |  | 
12 | CNCC(=O)c1ccc2[nH]c3ncccc3c2c1 [R245] | 82.4 ± 8.1 |  |  | 
13 | CN(C)/C=C/C(=O)c1ccc2[nH]c3ncccc3c2c1 [R246] | 55.1 ± 16.9 |  |  | 
14 | Clc1cnc2[nH]c3ccc(-c4ccc(N5CCOCC5)cn4)cc3c2c1 [R308, 3-Chloro-6-(5-morpholin-4-yl-pyridin-2-yl)-9H-pyrido[2,3-b]indole] | > 100 | 60 |  | 50
15 | COc1ccc(-c2ccc3[nH]c4ncc(-c5cccc([N+](=O)[O-])c5)cc4c3c2)cc1 [R356] | > 100 |  |  | 
16 | COc1ccc(-c2ccc3[nH]c4ncc(-c5cccc(N)c5)cc4c3c2)cc1 [R357, 3-(6-(4-methoxyphenyl)-9H-pyrido[2,3-b]indol-3-yl)benzenamine] | > 100 |  |  | 
17 | C(=C\c1ccc2c(n1)[nH]c1ccc(-c3ccc(CN4CCOCC4)cc3)cc12)/c1ccccc1 [R316] | > 33 | 10 |  | > 33
18 | COC(=O)C(=O)c1ccc2[nH]c3nc(C)ccc3c2c1 [R241, Methyl 2-oxo-2-[2-methyl-9H-pyrido[2,3-b]indol-6-yl]acetate] | 25.3 ± 2.6 |  |  | 
19 | O=[N+]([O-])c1cccc(-c2cnc3[nH]c4ccccc4c3c2)c1 [R328, 3-(3-nitrophenyl)-9H-pyrido[2,3-b]indole] | 48 ± 17 | 13 |  | 6.8

The next lines start with results.

Row | IC50 (Recombinant ALK kinase) [µM] | GI50 [2] [µM] | IC50 [3] [µM] | Structure (SMILES) | IC50 [1] [µM]
20 | 9.7 ± 1.3 |  |  | O=C(CBr)c1ccc2[nH]c3ncc(Cl)cc3c2c1 [R251, 2-Bromo-1-(3-chloro-9H-pyrido[2,3-b]indol-6-yl)ethanone] | 
21 | 18 ± 1 | 0.3 |  | CCN(CC)CCSCC(=O)c1ccc2[nH]c3nc(Nc4cccc([N+](=O)[O-])c4)ccc3c2c1 [R321, 2-(2′-(N,N-diethylamino)ethylthio)-1-[2-(3-nitrophenylamino)-9H-pyrido[2,3-b]indol-6-yl]ethanone] | 0.7
22 | 12 ± 7 | > 100 |  | c1ccc(-c2ccc(-c3cnc4[nH]c5ccccc5c4c3)cc2)cc1 [R329, 3-(4-phenylphenyl)-9H-pyrido[2,3-b]indole] | > 100
23 | 14 ± 2 | > 100 |  | c1ccc(-c2ccc(-c3ccnc4[nH]c5ccccc5c34)cc2)cc1 [R330, 4-(4-phenylphenyl)-9H-pyrido[2,3-b]indole] | > 100
24 | 8.2 ± 2.1 | 2.6 | 26 | O=[N+]([O-])c1cccc(Nc2ccc3c(n2)[nH]c2ccccc23)c1 [R317, N-(3-nitrophenyl)-9H-pyrido[2,3-b]indol-2-amine] | 6.3
25 | 20 ± 4 | 57 |  | O=[N+]([O-])c1cccc(Nc2ccnc3[nH]c4ccccc4c23)c1 [R322, N-(3-nitrophenyl)-9H-pyrido[2,3-b]indol-4-amine] | > 100
26 | 4.7 ± 0.2 | 11 | 16 | O=[N+]([O-])c1ccccc1Nc1ccc2c(n1)[nH]c1ccccc12 [R319, N-(2-nitrophenyl)-9H-pyrido[2,3-b]indol-2-amine] | 44
27 | 14.6 ± 2.8 |  |  | O=[N+]([O-])/C=C/c1ccc2[nH]c3ncccc3c2c1 [R244] | 
28 | 8.8 ± 2.7 | 0.64 | > 10 | Clc1cnc2[nH]c3ccc(-c4ccc(CN5CCOCC5)cc4)cc3c2c1 [R313, 3-chloro-6-(4-(morpholin-4-yl)methylphenyl)-9H-pyrido[2,3-b]indole] | 0.5
29 | 15.3 ± 1.5 |  |  | Cc1ccc2c(n1)[nH]c1ccc(C(=O)c3ccccc3)cc12 [R243, 6-benzoyl-2-methyl-9H-pyrido[2,3-b]indole] | 
